Each structure is given as a SMILES string.

The values below come from US20040115804A1, “Cell system for generating somatic cells” (priority 2002, published 2004).

The test system of series [1] is umbilical mesenchymal cells. The series is described as follows: Transformation of umbilical mesenchymal cells into neurons with BME (NF and NeuN immunostaining). It is filed as cell-based, human. Conditions: 2 mM BME, 72 hours. The text has this:
Neurofilament (NF) is the major cytoskeleton in neurons, which is responsible for adjusting the size, appearance and diameter of dendrites of neurons. Only neurons at the late developmental stage or mature neurons express NF. Immunostaining for NF is utilized to recognize neurons at the late stage.
Neuron-specific nuclear protein (NeuN) is a specific protein existing in the nucleus of neurons in the central nervous system of vertebrates. NeuN binds to DNA in vitro. It is known that NeuN appears earlier than NF during the development of neurons. Therefore, immunostaining for NeuN is utilized to identify neurons at the early stage of transformation.
Umbilical mesenchymal cells obtained in Example 1 were cultured in 10% FBS-DMEM for 72 hours. Two mM BME was added to the culture and the cells continued to be cultured for 72 hours.

Another series concerns BMSCs. Conditions: in vitro culture of BMSCs; cited from earlier work.
The conditions of series [2]: unsuitable for use in human bodies; cited from earlier work.
The test system of series [3] is haematopoietic stem cells of umbilical cord blood. Conditions: cultured in 0.001% of β-Mercaptoethanol; cited from earlier work.
The test system of series [4] is umbilical mesenchymal cells. The series can be described thus: Cardiac troponin I / F-actin immunocytochemistry after cardiac differentiation. It is filed as cell-based, human. To be noted: 3 μM 5-azacytidine for 24 hours, then growing medium 1-3 weeks. Here is the method:
Umbilical mesenchymal cells obtained in Example 1 were cultured in a cell growing medium of DMEM supplemented with about 4.5 g/L of glucose and about 10% FBS. After the cells have attached to the bottom of the cell culture plate, the cell growing medium was then replaced by a cell differentiating medium, which was prepared by supplementing the cell growing medium with 3 μM 5-azacytidine as a cell differentiating factor. Alternatively, the cell differentiating factor may be directly added to the culture.
The umbilical mesenchymal cells were cultured in the cell differentiating medium for 24 hours. The cell differentiating medium was then replaced by the cell growing medium to prevent intoxication of the cells caused by the long exposure to 5-azacytidine. The differentiated cells were further maintained in the cell growing medium for about 1-3 weeks to ensure the viability and optimal differentiation of the cells. The culture medium was replaced with fresh medium every three days. […]
Next, secondary antibodies conjugated to fluorescence or any visible dyes readily detectable by an optical instrument such as a confocal laser scanning microscope, a fluorescence microscope, or an optical microscope, Rhodamine (TRITC)-conjugated AffiniPure Donkey Anti-Goat IgG (supplied by Jackson ImmunoResearch Lab) were added at a 1:100 dilution to bind the host species of the primary antibodies. […]

Series [5] concerns bone marrow stromal cells. Conditions: bone marrow stromal cells treated with 5-azacytidine; cited from earlier work.

Turning to `OCCS` [BME, β-mercaptoethanol], in series [1], the “NF expression (immunostaining)” value is given as “expressed NF” and the “NeuN expression (immunostaining)” value is “expressed NeuN”. In addition, the “cultured BMSCs induced to differentiate into neurons” value with BMSCs is “about 80%”. Further, the toxicity result in series [2] is listed as “toxic for proteins”. In series [3], the “transformation of cord blood haematopoietic stem cells” value is “transformed into precursors of neural cells”.

Take `Nc1ncn([C@@H]2O[C@H](CO)[C@@H](O)[C@H]2O)c(=O)n1` [cell differentiating factor, 5-azacytidine]: the “F-actin expression, cell attachment pattern” value in series [4] is reported as “specific cell attachment pattern similar to that of the cardiomyocytes or cardiovascular cells”. The “C-troponin I expression” value in series [4] (compared to untreated cells) is on record as “significant expression of C-troponin I”. Further, the “ultrastructure by electron microscopy” value in series [5] is reported as “cardiomyocyte-like ultrastructure”.
